# Reference: patent publication US4515781A, “2',5'-Riboadenylate-morpholinoadenylate nucleotides” (The United States of America as represented by the …, priority 1983, dated 1985)
# “Also recorded” adds a separate entry of the source.
# How the values were obtained:
# [1] = test system: antip5'A2'p5'A2'p5'Aserum; assay: Reactivity of 2',5'-oligoadenylates with antibody (enzyme-linked immunoassay); type: binding; conditions: for IC50: enzyme-linked immunoassay, read-out: IC50, concentration required to achieve a 50% inhibition of reactivity with antip5'A2'p5'A2'p5'Aserum
# Description: ^a Concentration in nanomolar required to achieve a 50% inhibition of
# reactivity with antip5'A2'p5'A2'p5'Aserum in an enzymelinked immunoassay.
# [2] = test system: protein synthesis in mouse L cell extracts programmed by encephalomyocarditis virus RNA; assay: Inhibition of protein synthesis (translation) in extracts of mouse L cells programmed with encephalomyocarditis virus RNA; type: biochemical; conditions: tetramer (12) alone
# Procedure: (§1) The preparation of cell extracts and the techniques and conditions of cell-free protein synthesis in extracts of interferon-treated or untreated mouse L cells have been described elsewhere.
# (§2) This observation provided a relatively simple approach to determine if a given nucleotide or oligoribonucleotide is capable of significant binding to the 2-5A-activated ribonuclease. For this reason, the (2'→5')oligoadenylates 5'-monophosphates, 11 and 12, were evaluated first for their ability to block the translational inhibitory effects of ppp5'A2'p5'A2'p5'A in extracts of mouse L cells programmed by encephalomyocarditis virus RNA. In the experiment, the 2-5A trimer, ppp5'A2'p5'A2'p5'A, was added in varying concentrations, with or without the tetranucleotide 5'-monophosphate inhibited translation with a concentration for half-maximal response of ~2×10^-9 M in agreement with other values in the literature. However, when 12 was also present at a concentration of 8×10^-5 M, there was at least a 1000-fold increase in the concentration of 2-5A trimer triphosphate required to bring about a half-maximal inhibition of protein synthesis.
# [3] = test system: 2-5A-activated ribonuclease (translational inhibitory effects of ppp5'A2'p5'A2'p5'A); assay: Antagonism of 2-5A trimer triphosphate translational inhibition in mouse L cell extracts; type: biochemical
# Procedure: as §1
# as §2, with “synthesis. […]” for “synthesis.”
# [4] = test system: 2-5A-dependent endoribonuclease; assay: Prevention of 2-5A-activated degradation of [3H]-encephalomyocarditis virus RNA in extracts of mouse L cells; type: biochemical
# Description: (§3) To ascertain if the 2'-terminally modified (2'→5')oligonucleotides prevented the protein synthesis inhibitory action of 2-5A by the same mechanism as does p5'A2'p5'A2'p5'A (i.e., by preventing the activation of the 2-5A-dependent endoribonuclease), the 2-5A-enhanced degradation of [^3 H]-encephalomyocarditis virus RNA was followed in extracts of mouse L cells in the presence or absence of the modified tetramer monophosphate (12). The 2-5A-activated degradation of encephalomyocarditis virus RNA was prevented by 12; furthermore, there was good agreement between the results since in both instances a concentration of 8×10^-5 M 12 caused approximately a 1000-fold increase in the concentration of ppp5'A2'p5'A2'p5'A needed to effect 50% of the maximum inhibition.
# [5] = test system: poly(I)·poly(C) action (2-5A synthetase-endonuclease system); assay: Antagonism of poly(I).poly(C) protein synthesis inhibition in extracts of interferon-treated mouse L cells; type: biochemical
# Description: as §1
# This observation implied that the inhibitory action of poly(I)·poly(C) is mediated chiefly by the 2-5A synthetase-endonuclease system. […] As observed previously with p5'A2'p5'A2'p5'A, the reversal of inhibition of poly(I)·poly(C) was not complete.
# [6] = test system: 2-5A synthetase; assay: Kinetics of 2-5A synthesis in the presence of compound 11 or 12; type: biochemical, mouse; conditions: standard synthetase assay conditions
# Procedure: Incubation was at 30° for the designated times at which aliquots (35 μL) were removed and diluted 10× in cold H2 O. These diluted reaction mixtures were frozen at -90° until analysis.
# Reaction mixture were analyzed by thin layer chromatography by spotting 2 μL of the diluted reaction mixture on a plastic PEI cullulose plate (E. Merck). The plate was developed first with solvent system D and then three times with solvent system C. […] A template of the developed film was made with aid of tracing paper, and this was used to locate the corresponding radioactive spots on the tlc plate. The plate was cut according to the positions indicated by the template, and the resulting pieces were counted with 10 mls of fluor in a standard scintillation vial. The percentage of each radioactive component by the gross radioactivity associated with all the components visualized on tlc. The position of ATP, pp5'A2'p5'A,pppA2'p5'A2'p5'A, etc. were determined from authentic markers.
# [7] = Stability of 2',5'-oligoadenylates in mouse L-cell extracts, immunochemical study; type: in vitro ADME
# Procedure: Oligoadenylates at a final concentration of 400 nM were incubated under protein synthesis conditions (minus [^3 H]-leu and EMCV RNA) at 30° C. for 0-6 hours. Samples were removed diluted with an equal volume of phosphate-buffered saline (PBS, 0.01M sodium phosphate, pH 7.4, 0.14M NaCl) with added 0.05% polyoxyethylene sorbitan monolaurate, (PSM) and then heated at 95° C. for 10-15 minutes. After cooling, the samples were centrifuged for 1 min. at room temperature in an Eppendorf microfuge. The supernatant samples were serially diluted (three-fold) in 0.05% PSM prior to analysis in a competitive enzyme-linked antibody assay.
# In a second series of experiments, the degradation of both the 5'-monophosphates and 5'-triphosphate of the terminally modified oligomers was compared to the degradation of the corresponding unmodified mono- and tri-phosphates. In this case, however, the course of reaction was followed using an immunoenzymometric assay for 2-5A and its derivatives. The antiserum employed in this study was inhibited 50% by both the unmodified and 2'-terminally modified 2',5'-oligoadenylates in the nanomolar range, the tetramer oligoadenylates being 2-5 times more reactive than the corresponding trimer species (Table 3, experimental). In contrast, the dimers were much less reactive, requiring concentrations of about 300 nM to achieve this same level of inhibition. […]
# [8] = test system: 2-5A-dependent endoribonuclease (RNase L); assay: 2-5A-enhanced degradation of [3H]-encephalomyocarditis virus RNA in cell extracts (activation of RNase L); type: biochemical, mouse
# Description: as §3
# The enhanced activity of the 2'-terminally modified tetramer triphosphate 13 also was observed when the degradation of [^3 H]-encephalomycarditis virus RNA in cell extracts was examined. Modified tetramer triphosphate (13) enhanced degradation of labeled RNA with a concentration of 9×10^-11 M necessary to elicit a half-maximal response compared to ppp5'A2'p5'A2'p5'A which required a concentration of 9×10^-10 M to elicit a half-maximal response. In addition, there was good correlation between these values and the corresponding concentrations response for inhibition of protein synthesis.
# [9] = test system: reticulocyte lysate; conditions: compared to tetramer triphosphate; cited from earlier work
molecule,measurement,setting,value
Nc1ncnc2c1ncn2[C@@H]1O[C@H](CO)[C@@H](O)[C@H]1O [adenosine],antibody inhibition by mononucleotides and adenosine,[1],inhibitory only at millimolar concentrations
"5'-monophosphoryladenylyl-(2'→5')-adenylyl-(2'→5')adenylyl(2'→6')(3'-aza-4'-hexyl-1',2',3',4'-tetradeoxyhexopyranos-1'-yl)adenine [Compound 12]",effect on translation by itself,[2],no significant effect on translation
same,effectiveness as antagonist of 2-5A action (in words),[3],somewhat more effective than the trimer 11 in preventing 2-5A action
same,increase in the concentration of 2-5A trimer triphosphate required for half-maximal inhibition of protein synthesis,[3]; 12 at 8×10^-5 M,≥ 1000 fold
same,prevention of 2-5A-activated degradation of encephalomyocarditis virus RNA,[4],prevented
same,increase in the concentration of ppp5'A2'p5'A2'p5'A needed to effect 50% of the maximum inhibition,[4]; 8×10^-5 M 12,~1000 fold
same,prevention of protein synthesis inhibition caused by poly(I).poly(C) (in words),[5],not complete
same,potency in preventing the inhibitory action of poly(I).poly(C) (in words),[5]; 11 vs 12,approximately equal potency
same,effect on the rate of synthesis of 2-5A,[6],neither 11 nor 12 affected the rate of formation of 2-5A
same,effect on the rate of synthesis of 2-5A,"[6]; listed as ""tailed"" (pA)4","neither ""tailed"" (pA)3 nor ""tailed"" (pA)4 had any significant effect on the rate of synthesis"
same,IC50,[1],1 nM
same,"stability in cell-free extracts relative to unmodified 2',5'-oligoadenylates",[7],"markedly more stable in cell-free extracts than the unmodified 2',5'-oligoadenylates"
same,antibody reactivity during incubation,"[7]; 4×10^-7 M oligomer, 6 hours of incubation",did not decrease even after 6 hours of incubation; also recorded: increased slightly with time
ppp5'A2'p5'A2'p5'A,activity as activator of RNase L (in words),[8],quite similar as activators of RNase L
same,IC50,[1],18 nM
same,biological activity in reticulocyte lysate,[9],anomalously low compared to tetramer triphosphate
